Data: ChEMBL document CHEMBL1649234, “Antimicrobial activities of piperacillin-tazobactam against Haemophilus influenzae isolates, including beta-lactamase-negative ampicillin-resistant and beta-lactamase-positive amoxicillin-clavulanate-resistant isolates, and mutations in their quinolone resistance-determining regions” (2009)
Converted amounts (≈) assume the structure as drawn.

Experiments:
[1] = test system: Haemophilus influenzae; experiment: Antimicrobial activity against beta-lactamase-positive ampicillin-resistant Haemophilus influenzae harboring fst1 mutant gene by broth microdilution method in presence of beta-lactamase inhibitor clavulanic acid; format: functional
[2] = test system: Haemophilus influenzae; experiment: Antimicrobial activity against beta-lactamase positive (amoxicillin)clavulanate-resistant Haemophilus influenzae assessed as susceptible isolates by broth microdilution method in presence of beta-lactamase inhibitor clavulanic acid; format: functional
[3] = test system: Haemophilus influenzae; experiment: Antimicrobial activity against beta-lactamase-positive ampicillin-resistant Haemophilus influenzae harboring […] mutant gene assessed as susceptible isolates by broth microdilution method in presence of beta-lactamase inhibitor clavulanic acid; format: functional
[4] = test system: Haemophilus influenzae; experiment: Antimicrobial activity against beta-lactamase negative ampicillin-susceptible Haemophilus influenzae harboring […] mutant gene by broth microdilution method in presence of beta-lactamase inhibitor clavulanic acid; format: functional
[5] = test system: Haemophilus influenzae; experiment: Antimicrobial activity against beta-lactamase negative ampicillin-susceptible Haemophilus influenzae harboring […] mutant gene assessed as susceptible isolates by broth microdilution method in presence of beta-lactamase inhibitor clavulanic acid; format: functional
[6] = test system: Haemophilus influenzae; experiment: Antimicrobial activity against beta-lactamase positive (amoxicillin)clavulanate-resistant Haemophilus influenzae by broth microdilution method in presence of beta-lactamase inhibitor clavulanic acid; format: functional
[7] = test system: Haemophilus influenzae; experiment: Antimicrobial activity against beta-lactamase negative ampicillin-resistant Haemophilus influenzae by broth microdilution method in presence of beta-lactamase inhibitor clavulanic acid; format: functional
[8] = test system: Haemophilus influenzae; experiment: Antimicrobial activity against beta-lactamase negative ampicillin-resistant Haemophilus influenzae assessed as susceptible isolates by broth microdilution method in presence of beta-lactamase inhibitor clavulanic acid; format: functional
[9] = test system: Haemophilus influenzae; experiment: Antimicrobial activity against beta-lactamase-positive ampicillin-resistant Haemophilus influenzae harboring fst1 mutant gene assessed as susceptible isolates by broth microdilution method; format: functional
[10] = test system: Haemophilus influenzae; experiment: Antimicrobial activity against beta-lactamase negative ampicillin-susceptible Haemophilus influenzae harboring […] mutant gene by broth microdilution method in presence of beta-lactamase inhibitor Sulbactam; format: functional
[11] = test system: Haemophilus influenzae; experiment: Antimicrobial activity against beta-lactamase positive (amoxicillin)clavulanate-resistant Haemophilus influenzae assessed as susceptible isolates by broth microdilution method in presence of beta-lactamase inhibitor Sulbactam; format: functional
[12] = test system: Haemophilus influenzae; experiment: Antimicrobial activity against beta-lactamase negative ampicillin-resistant Haemophilus influenzae assessed as susceptible isolates by broth microdilution method in presence of beta-lactamase inhibitor Sulbactam; format: functional
[13] = test system: Haemophilus influenzae; experiment: Antimicrobial activity against beta-lactamase positive (amoxicillin)clavulanate-resistant Haemophilus influenzae by broth microdilution method in presence of beta-lactamase inhibitor Sulbactam; format: functional
[14] = test system: Haemophilus influenzae; experiment: Antimicrobial activity against beta-lactamase-positive ampicillin-resistant Haemophilus influenzae harboring fst1 mutant gene by broth microdilution method; format: functional
[15] = test system: Haemophilus influenzae; experiment: Antimicrobial activity against beta-lactamase positive (amoxicillin)clavulanate-resistant Haemophilus influenzae assessed as susceptible isolates by broth microdilution method; format: functional
[16] = test system: Haemophilus influenzae; experiment: Antimicrobial activity against beta-lactamase positive (amoxicillin)clavulanate-resistant Haemophilus influenzae by broth microdilution method; format: functional
[17] = test system: Haemophilus influenzae; experiment: Antimicrobial activity against beta-lactamase negative ampicillin-susceptible Haemophilus influenzae harboring […] mutant gene assessed as susceptible isolates by broth microdilution method; format: functional
[18] = test system: Haemophilus influenzae; experiment: Antimicrobial activity against beta-lactamase negative ampicillin-resistant -Haemophilus influenzae by broth microdilution method; format: functional
[19] = test system: Haemophilus influenzae; experiment: Antimicrobial activity against beta-lactamase-positive ampicillin-resistant Haemophilus influenzae harboring fst1 mutant gene by broth microdilution method in presence of beta-lactamase inhibitor Sulbactam; format: functional
[20] = test system: Haemophilus influenzae; experiment: Antimicrobial activity against beta-lactamase negative ampicillin-resistant Haemophilus influenzae by broth microdilution method in presence of beta-lactamase inhibitor Sulbactam; format: functional
[21] = test system: Haemophilus influenzae; experiment: Antimicrobial activity against beta-lactamase-positive ampicillin-resistant Haemophilus influenzae harboring […] mutant gene assessed as susceptible isolates by broth microdilution method in presence of beta-lactamase inhibitor Sulbactam; format: functional
[22] = test system: Haemophilus influenzae; experiment: Antimicrobial activity against beta-lactamase negative ampicillin-resistant Haemophilus influenzae assessed as susceptible isolates by broth microdilution method; format: functional
[23] = test system: Haemophilus influenzae; experiment: Antimicrobial activity against beta-lactamase negative ampicillin-susceptible Haemophilus influenzae harboring […] mutant gene by broth microdilution method; format: functional
[24] = test system: Haemophilus influenzae; experiment: Antimicrobial activity against beta-lactamase negative ampicillin-susceptible Haemophilus influenzae harboring […] mutant gene assessed as susceptible isolates by broth microdilution method in presence of beta-lactamase inhibitor Sulbactam; format: functional
[25] = test system: Haemophilus influenzae; experiment: Antimicrobial activity against beta-lactamase positive (amoxicillin)-clavulanate-resistant Haemophilus influenzae harboring fst1 mutant gene and gyrA Asp88Thr mutant gene by broth microdilution method
[26] = test system: Haemophilus influenzae; experiment: Antimicrobial activity against beta-lactamase negative ampicillin-resistant-Haemophilus influenzae harboring fst1 mutant gene and gyrA Asp88Thr and parC Glu88Lys mutant gene by broth microdilution method
[27] = test system: Haemophilus influenzae; experiment: Antimicrobial activity against beta-lactamase positive ampicillin-resistant-Haemophilus influenzae gyrA Ser84Leu, parC Ser84Arg/Asn138Ser and parE Asp364Gly mutant gene by broth microdilution method
[28] = test system: Haemophilus influenzae; experiment: Antimicrobial activity against beta-lactamase positive (amoxicillin)-clavulanate-resistant Haemophilus influenzae harboring fst1 mutant gene and gyrA Ser84Leu and parE Ala369Thr mutant gene by broth microdilution method
[29] = test system: Haemophilus influenzae; experiment: Antimicrobial activity against beta-lactamase negative ampicillin-susceptible-Haemophilus influenzae harboring gyrA Asp88Gly, gyrB Thr472Ile and parC Asp83Asn mutant gene by broth microdilution method
[30] = test system: Haemophilus influenzae; experiment: Antimicrobial activity against beta-lactamase positive (amoxicillin)-clavulanate-resistant Haemophilus influenzae harboring fst1 mutant gene and gyrA Ser84Leu, parC Ser84Cys and parE Ala369Thr mutant gene by broth microdilution method
[31] = test system: Haemophilus influenzae; experiment: Antimicrobial activity against beta-lactamase positive (amoxicillin)-clavulanate-resistant Haemophilus influenzae harboring fst1 mutant gene and gyrA Ser84Leu/Asp88Gly, parC Glu88Lys and parE VAl392Ile/Asp420Asn mutant gene by broth microdilution method
[32] = test system: Haemophilus influenzae; experiment: Antimicrobial activity against beta-lactamase negative ampicillin-resistant-Haemophilus influenzae harboring fst1 mutant gene and gyrA Ser84Leu, parC Asn138Ser and parE Ser474Asn mutant gene by broth microdilution method
[33] = test system: Haemophilus influenzae; experiment: Antimicrobial activity against beta-lactamase negative ampicillin-resistant-Haemophilus influenzae harboring fst1 mutant gene and gyrA Ser84Leu mutant gene by broth microdilution method
[34] = test system: Haemophilus influenzae; experiment: Antimicrobial activity against beta-lactamase negative ampicillin-resistant-Haemophilus influenzae harboring fst1 mutant gene and gyrA Ser84Leu, parC Ser133Ala/Asn138Ser mutant gene by broth microdilution method
[35] = test system: Haemophilus influenzae; experiment: Antimicrobial activity against beta-lactamase positive (amoxicillin)-clavulanate-resistant Haemophilus influenzae harboring fst1 mutant gene and gyrA Ser84Leu, parC Ser84Ile/Asn138Ser mutant gene by broth microdilution method
[36] = test system: Haemophilus influenzae; experiment: Antimicrobial activity against beta-lactamase positive (amoxicillin)-clavulanate-resistant -Haemophilus influenzae harboring fst1 mutant gene and gyrA Ser84Leu, parC Ser84Cys and parE Asp364Thr mutant gene by broth microdilution method
[37] = test system: Haemophilus influenzae; experiment: Antimicrobial activity against beta-lactamase positive ampicillin-resistant-Haemophilus influenzae gyrA Asp88Asn, parC Ser84Cys and parE Ala369Thr mutant gene by broth microdilution method
[38] = test system: Haemophilus influenzae; experiment: Antimicrobial activity against beta-lactamase negative […]-Haemophilus influenzae harboring […] mutant gene by disk diffusion method in presence of beta-lactamase inhibitor Tazobactam; format: functional
[39] = test system: Haemophilus influenzae; experiment: Antimicrobial activity against beta-lactamase positive (amoxicillin)clavulanate-resistant Haemophilus influenzae by broth microdilution method in presence of beta-lactamase inhibitor Tazobactam; format: functional
[40] = test system: Haemophilus influenzae; experiment: Antimicrobial activity against beta-lactamase negative ampicillin-resistant Haemophilus influenzae by broth microdilution method in presence of beta-lactamase inhibitor Tazobactam; format: functional
[41] = test system: Haemophilus influenzae; experiment: Antimicrobial activity against beta-lactamase negative ampicillin-susceptible Haemophilus influenzae harboring […] mutant gene by broth microdilution method in presence of beta-lactamase inhibitor Tazobactam; format: functional
[42] = test system: Haemophilus influenzae; experiment: Antimicrobial activity against beta-lactamase negative ampicillin-resistant-Haemophilus influenzae harboring […] mutant gene by disk diffusion method in presence of beta-lactamase inhibitor Tazobactam; format: functional
[43] = test system: Haemophilus influenzae; experiment: Antimicrobial activity against beta-lactamase-positive ampicillin-resistant Haemophilus influenzae harboring fst1 mutant gene assessed as susceptible isolates by broth microdilution method in presence of beta-lactamase inhibitor Tazobactam; format: functional
[44] = test system: Haemophilus influenzae; experiment: Antimicrobial activity against beta-lactamase-positive ampicillin-resistant Haemophilus influenzae harboring […] mutant gene by broth microdilution method in presence of beta-lactamase inhibitor Tazobactam; format: functional
[45] = test system: Haemophilus influenzae; experiment: Antimicrobial activity against beta-lactamase negative ampicillin-resistant Haemophilus influenzae assessed as susceptible isolates by broth microdilution method in presence of beta-lactamase inhibitor Tazobactam; format: functional
[46] = test system: Haemophilus influenzae; experiment: Antimicrobial activity against beta-lactamase positive (amoxicillin)clavulanate-resistant Haemophilus influenzae assessed as susceptible isolates by broth microdilution method in presence of beta-lactamase inhibitor Tazobactam; format: functional
[47] = test system: Haemophilus influenzae; experiment: Antimicrobial activity against beta-lactamase negative ampicillin-susceptible Haemophilus influenzae harboring […] mutant gene assessed as susceptible isolates by broth microdilution method in presence of beta-lactamase inhibitor Tazobactam; format: functional

CC1(C)S[C@@H]2[C@H](NC(=O)[C@H](N)c3ccc(O)cc3)C(=O)N2[C@H]1C(=O)O [AMOXICILLIN]
MIC [1]: 0.5 µg/mL
MIC50 [1]: 0.5 µg/mL
MIC90 [1]: 1 µg/mL
Activity [2]: 0%
Activity [3]: 100%
MIC50 [4]: 0.5 µg/mL
MIC90 [4]: 1 µg/mL
Activity [5]: 100%
MIC [6]: 8 µg/mL
MIC50 [6]: 8 µg/mL
MIC90 [6]: 8 µg/mL
MIC50 [7]: 8 µg/mL
MIC90 [7]: 8 µg/mL
Activity [8]: 27%

CC1(C)S[C@@H]2[C@H](NC(=O)[C@H](N)c3ccccc3)C(=O)N2[C@H]1C(=O)O [AMPICILLIN]
Activity [9]: 0%
MIC50 [10]: 0.5 µg/mL
MIC90 [10]: 0.5 µg/mL
Activity [11]: 0%
Activity [12]: 22%
MIC [13]: 8 µg/mL
MIC50 [13]: 8 µg/mL
MIC90 [13]: 16 µg/mL
MIC50 [14]: ≥ 8 µg/mL
MIC90 [14]: ≥ 8 µg/mL
Activity [15]: 0%
MIC [16]: ≥ 8 µg/mL
MIC50 [16]: ≥ 8 µg/mL
MIC90 [16]: ≥ 8 µg/mL
Activity [17]: 100%
MIC50 [18]: 4 µg/mL (≈ 11.4 µM)
MIC90 [18]: ≥ 8 µg/mL
MIC [19]: 0.5 µg/mL
MIC50 [19]: 0.25 µg/mL
MIC90 [19]: 0.5 µg/mL
MIC50 [20]: 4 µg/mL
MIC90 [20]: 8 µg/mL
Activity [21]: 75%
Activity [22]: 0%
MIC50 [23]: 0.25 µg/mL (≈ 0.715 µM)
MIC90 [23]: 0.5 µg/mL (≈ 1.43 µM)
Activity [24]: 100%

CO/N=C(\C(=O)N[C@@H]1C(=O)N2C(C(=O)O)=C(CSc3nc(=O)c(O)nn3C)CS[C@H]12)c1csc(N)n1 [CEFTRIAXONE]
Activity [15]: 100%
MIC50 [16]: 0.12 µg/mL
MIC90 [16]: 0.25 µg/mL
MIC50 [18]: 0.25 µg/mL (≈ 0.451 µM)
MIC90 [18]: 0.25 µg/mL (≈ 0.451 µM)
Activity [22]: 100%

O=C(O)c1cn(C2CC2)c2cc(N3CCNCC3)c(F)cc2c1=O [CIPROFLOXACIN]
MIC [25]: 0.06 µg/mL
MIC [26]: 0.06 µg/mL (≈ 0.181 µM)
MIC [27]: 0.25 µg/mL (≈ 0.754 µM)
MIC [28]: 0.06 µg/mL
MIC [29]: 0.25 µg/mL (≈ 0.754 µM)
MIC [30]: 0.06 µg/mL
MIC [31]: 16 µg/mL
MIC [32]: 0.06 µg/mL (≈ 0.181 µM)
MIC [33]: 0.06 µg/mL (≈ 0.181 µM)
MIC [34]: 0.06 µg/mL (≈ 0.181 µM)
MIC [35]: 0.5 µg/mL
MIC [36]: 0.25 µg/mL
MIC [37]: 0.25 µg/mL (≈ 0.754 µM)

C[C@@H](O)[C@H]1C(=O)N2C(C(=O)O)=C(SCCNC=N)C[C@H]12 [IMIPENEM ANHYDROUS]
Activity [15]: 98%
MIC50 [16]: 2 µg/mL
MIC90 [16]: 2 µg/mL
MIC50 [18]: 1 µg/mL (≈ 3.34 µM)
MIC90 [18]: 4 µg/mL (≈ 13.4 µM)
Activity [22]: 96%

C[C@@H](O)[C@H]1C(=O)N2C(C(=O)O)=C(S[C@@H]3CN[C@H](C(=O)N(C)C)C3)[C@H](C)[C@H]12 [MEROPENEM]
Activity [15]: 100%
MIC50 [16]: 0.25 µg/mL
MIC90 [16]: 0.5 µg/mL
MIC50 [18]: 0.25 µg/mL (≈ 0.652 µM)
MIC90 [18]: 0.5 µg/mL (≈ 1.3 µM)
Activity [22]: 99%

CCN1CCN(C(=O)N[C@@H](C(=O)N[C@@H]2C(=O)N3[C@@H]2SC(C)(C)[C@@H]3C(=O)O)c2ccccc2)C(=O)C1=O [PIPERACILLIN]
inhibition zone (IZ) [38]: >=21 mm
MIC50 [39]: 0.12 µg/mL
MIC90 [39]: 0.25 µg/mL
MIC50 [40]: 0.06 µg/mL
MIC90 [40]: 0.12 µg/mL
MIC [41]: ≤ 0.03 µg/mL
MIC50 [41]: ≤ 0.03 µg/mL
MIC90 [41]: 0.06 µg/mL
inhibition zone (IZ) [42]: >=21 mm
MIC50 [16]: 32 µg/mL
MIC90 [16]: ≥ 64 µg/mL
MIC50 [18]: 0.12 µg/mL (≈ 0.232 µM)
MIC90 [18]: 0.25 µg/mL (≈ 0.483 µM)
Activity [43]: 100%
MIC [44]: ≤ 0.03 µg/mL
MIC50 [44]: ≤ 0.03 µg/mL
MIC90 [44]: 0.06 µg/mL
Activity [45]: 100%
Activity [46]: 100%
Activity [47]: 100%
